Results: paper PMC6201879, “N-substituted phenylbenzamides of the niclosamide chemotype attenuate obesity related changes in high fat diet fed mice” (PLoS ONE, 2018)
Like-named read-outs stand apart in the source and are kept apart here.

Experiments:
[1] = test system: carbonic anhydrase-III (CAIII); assay: Western blot of carbonic anhydrase III in liver of HFD-fed mice; conditions: HFD fed-DIO mice; 10mg/kg for 12 days; vs sham
p-AMPK Thr-172 = assay: Western blot of p-AMPK Thr-172 in liver of HFD-fed mice; conditions: HFD fed-DIO mice; 10mg/kg for 12 days; vs sham
[2] = test system: Salmonella typhimurium TA1535; conditions: for Mean Revertant Colony Counts TA-1535 SP9+: with S9; for Mean Revertant Colony Counts TA-1535 S9-: without S9
[3] = test system: Salmonella typhimurium TA1537; conditions: for Mean Revertant Colony Counts TA-1537 SP9+: with S9; for Mean Revertant Colony Counts TA-1537 S9-: without S9
[4] = test system: Escherichia coli WP2 uvrA (pKM101); assay: Ames assay, strain WP2 uvrA (pKM101); conditions: for Mean Revertant Colony Counts WP2 uvrA (pKM101) SP9+: with S9; for Mean Revertant Colony Counts WP2 uvrA (pKM101) S9-: without S9
[5] = Body weight changes in HFD-fed mice; format: in vivo, mouse; conditions: 10mg/kg I.P daily for 12 days
Procedure: We next measured body weight changes in HFD-fed animals prior to treatment with niclosamide or phenylbenzamide derivatives and after 12 days, prior to sacrifice. During this time, all animals (including sham) lost some weight.
20-week old animals were treated IP with 500199 at 10 or 25mg/kg by IP over a time-course of 9 days. At day 0, 3, 6 and 9 animals were weighed and tissue samples were collected for standard histological scoring of hepatic steatosis and automated quantitative histomorphometric scoring.

[6] = test system: Salmonella typhimurium (TA98, TA100, TA1535 and TA1537) and Escherichia coli (WP2 uvrA (pKM101)); assay: Ames assay, overall outcome and cytotoxicity across strains
[7] = test system: fatty acid synthase (FAS); assay: Western blot of fatty acid synthase in liver of HFD-fed mice; conditions: HFD fed-DIO mice; 10mg/kg for 12 days; vs sham
[8] = test system: Salmonella typhimurium TA98; assay: Ames assay, strain TA98; conditions: for Mean Revertant Colony Counts TA98 SP9+: with S9; for Mean Revertant Colony Counts TA98 S9-: without S9
[9] = Metabolic stability in mouse liver microsomes; format: in vitro ADME
Procedure: Three experiments were performed with 1) 0.5mg/ml microsomes and 1mM NADPH, 2) 0.5mg/ml microsomes without NADPH and 3) 0.5mg/ml heat inactivated microsomes without NADPH in 100mM phosphate buffer, containing 5mM magnesium chloride. […] At the indicated time points, 50μl samples were removed and stopped by addition of 4 volumes of cold acetonitrile with internal standards, 100nM alprazolam, 200nM labetalol and 2μM ketoprofen. The samples were centrifuged at 3,220 g for 40 minutes and aliquots of 100μl were subsequently diluted with 100μl of ultra-pure water and analyzed by LC/MS/MS using a (Shimadzu corporation) LC system coupled to a Shimadzu Triple Quad 5500 mass spectrometer with an ESI interface. The LC system used a Waters XSelect HSS T3 C18, 2.5μm, 2.1 x 50 mm column eluted with one of two methods using mobile phases A (water, 0.1% formic acid) and B (acetonitrile, 0.1% formic acid). […] The Shimadzu Triple Quad 5500 MS was operated with the following parameters: Ion source: Turbo spray; Ionization mode: ESI; Scan type: MRM; Collision gas: 10 L/min; Curtain gas: 30 L/min; Nebulize gas: 50 L/min; Auxiliary gas: 50 L/min; Temperature: 500°C; Ionspray voltage: +5500 V (positive MRM). All experiments were performed in duplicate. Data were analyzed using Microsoft excel, and peak areas were determined from extracted ion chromatograms.

[10] = any concentration tested, vs negative control

In the case of `CC(C)(C)c1cc(C(=O)Nc2ccc(C(=O)O)cc2Cl)c(O)c(C(C)(C)C)c1` [Compound 600453, 3-Chloro-4-[(3,5-di-tert-butyl-2-hydroxybenzene)amido]benzoic acid], the “CAIII protein levels in liver” value [1] is reported as “reduced”, the “phosphorylation of AMPK at Thr-172 in liver” value (p-AMPK Thr-172) is reported as “stimulated phosphorylation of AMPK at Thr-172” and the “Mean Revertant Colony Counts TA-1535 SP9+” value ([2]; 1.5 ug/Well) is reported as 2.7. For the same compound, the “Mean Revertant Colony Counts TA-1535 S9-” value ([2]; 1.5 ug/Well) was 4.0, the “Mean Revertant Colony Counts TA-1535 SP9+” value ([2]; 4 ug/Well) was 3.7 and the “Mean Revertant Colony Counts TA-1535 S9-” value ([2]; 4 ug/Well) was 3.7. For the same compound, the “Mean Revertant Colony Counts TA-1535 SP9+” value ([2]; 10 ug/Well) was 2.7, the “Mean Revertant Colony Counts TA-1535 S9-” value ([2]; 10 ug/Well) was 1.7 and the “Mean Revertant Colony Counts TA-1535 SP9+” value ([2]; 25 ug/Well) was 2.3. For the same compound, the “Mean Revertant Colony Counts TA-1535 S9-” value ([2]; 25 ug/Well) was 2.7, the “Mean Revertant Colony Counts TA-1535 SP9+” value ([2]; 64 ug/Well) was 3.0 and the “Mean Revertant Colony Counts TA-1535 S9-” value ([2]; 64 ug/Well) was 1.7. For the same compound, the “Mean Revertant Colony Counts TA-1535 SP9+” value ([2]; 160 ug/Well) was 3.3, the “Mean Revertant Colony Counts TA-1535 S9-” value ([2]; 160 ug/Well) was 4.0 and the “Mean Revertant Colony Counts TA-1535 SP9+” value ([2]; 400 ug/Well) was 2.0. For the same compound, the “Mean Revertant Colony Counts TA-1535 S9-” value ([2]; 400 ug/Well) was 2.7, the “Mean Revertant Colony Counts TA-1535 SP9+” value ([2]; 1000 ug/Well) was 2.0 and the “Mean Revertant Colony Counts TA-1535 S9-” value ([2]; 1000 ug/Well) was 2.7. The “fold increase in the mean number of revertant colonies, TA1535” value [2, 10] was less than 3 fold, the “Mean Revertant Colony Counts TA-1537 SP9+” value ([3]; 1.5 ug/Well) was 2.3 and the “Mean Revertant Colony Counts TA-1537 S9-” value ([3]; 1.5 ug/Well) was 0.7. The “Mean Revertant Colony Counts TA-1537 SP9+” value ([3]; 4 ug/Well) was 3.3, the “Mean Revertant Colony Counts TA-1537 S9-” value ([3]; 4 ug/Well) was 1.3 and the “Mean Revertant Colony Counts TA-1537 SP9+” value ([3]; 10 ug/Well) was 1.7. The “Mean Revertant Colony Counts TA-1537 S9-” value ([3]; 10 ug/Well) was 2.3, the “Mean Revertant Colony Counts TA-1537 SP9+” value ([3]; 25 ug/Well) was 1.7 and the “Mean Revertant Colony Counts TA-1537 S9-” value ([3]; 25 ug/Well) was 1.3. The “Mean Revertant Colony Counts TA-1537 SP9+” value ([3]; 64 ug/Well) was 1.0, the “Mean Revertant Colony Counts TA-1537 S9-” value ([3]; 64 ug/Well) was 0.3 and the “Mean Revertant Colony Counts TA-1537 SP9+” value ([3]; 160 ug/Well) was 3.3. The “Mean Revertant Colony Counts TA-1537 S9-” value ([3]; 160 ug/Well) was 0.0, the “Mean Revertant Colony Counts TA-1537 SP9+” value ([3]; 400 ug/Well) was 0.7 and the “Mean Revertant Colony Counts TA-1537 S9-” value ([3]; 400 ug/Well) was 1.0. For the same compound, the “Mean Revertant Colony Counts TA-1537 SP9+” value ([3]; 1000 ug/Well) was 3.7, the “Mean Revertant Colony Counts TA-1537 S9-” value ([3]; 1000 ug/Well) was 0.3 and the “fold increase in the mean number of revertant colonies, TA1537” value [3, 10] was less than 3 fold. For the same compound, the “Mean Revertant Colony Counts WP2 uvrA (pKM101) SP9+” value ([4]; 1.5 ug/Well) was 36.0, the “Mean Revertant Colony Counts WP2 uvrA (pKM101) S9-” value ([4]; 1.5 ug/Well) was 31.7 and the “Mean Revertant Colony Counts WP2 uvrA (pKM101) SP9+” value ([4]; 4 ug/Well) was 35.0. The “Mean Revertant Colony Counts WP2 uvrA (pKM101) S9-” value ([4]; 4 ug/Well) was 20.7, the “Mean Revertant Colony Counts WP2 uvrA (pKM101) SP9+” value ([4]; 10 ug/Well) was 31.7 and the “Mean Revertant Colony Counts WP2 uvrA (pKM101) S9-” value ([4]; 10 ug/Well) was 29.3. For the same compound, the “Mean Revertant Colony Counts WP2 uvrA (pKM101) SP9+” value ([4]; 25 ug/Well) was 33.3, the “Mean Revertant Colony Counts WP2 uvrA (pKM101) S9-” value ([4]; 25 ug/Well) was 15.7 and the “Mean Revertant Colony Counts WP2 uvrA (pKM101) SP9+” value ([4]; 64 ug/Well) was 28.0. The “Mean Revertant Colony Counts WP2 uvrA (pKM101) S9-” value ([4]; 64 ug/Well) was 23.0, the “Mean Revertant Colony Counts WP2 uvrA (pKM101) SP9+” value ([4]; 160 ug/Well) was 23.0 and the “Mean Revertant Colony Counts WP2 uvrA (pKM101) S9-” value ([4]; 160 ug/Well) was 20.0. The “Mean Revertant Colony Counts WP2 uvrA (pKM101) SP9+” value ([4]; 400 ug/Well) was 15.3, the “Mean Revertant Colony Counts WP2 uvrA (pKM101) S9-” value ([4]; 400 ug/Well) was 9.0 and the “Mean Revertant Colony Counts WP2 uvrA (pKM101) SP9+” value ([4]; 1000 ug/Well) was 9.0. The “Mean Revertant Colony Counts WP2 uvrA (pKM101) S9-” value ([4]; 1000 ug/Well) was 3.7, the “fold increase in the mean number of revertant colonies, WP2 uvrA (pKM101)” value [4, 10] was less than 2 fold and the “body weight change vs sham” value [5] was “lost significantly more weight”. For the same compound, the “Ames assay outcome (mutagenicity)” value [6] was “negative”, the “cytotoxicity in the Ames assay” value ([6]; relative to the negative control, presence and absence of S9 mix) was “no cytotoxicity was exhibited at any concentration” and the “FAS protein levels in liver” value [7] was “reduced”. For the same compound, the “Mean Revertant Colony Counts TA98 SP9+” value ([8]; 1.5 ug/Well) was 5.0, the “Mean Revertant Colony Counts TA98 S9-” value ([8]; 1.5 ug/Well) was 4.3 and the “Mean Revertant Colony Counts TA98 SP9+” value ([8]; 4 ug/Well) was 8.3. For the same compound, the “Mean Revertant Colony Counts TA98 S9-” value ([8]; 4 ug/Well) was 3.7, the “Mean Revertant Colony Counts TA98 SP9+” value ([8]; 10 ug/Well) was 7.7 and the “Mean Revertant Colony Counts TA98 S9-” value ([8]; 10 ug/Well) was 3.3. For the same compound, the “Mean Revertant Colony Counts TA98 SP9+” value ([8]; 25 ug/Well) was 6.3, the “Mean Revertant Colony Counts TA98 S9-” value ([8]; 25 ug/Well) was 3.0 and the “Mean Revertant Colony Counts TA98 SP9+” value ([8]; 64 ug/Well) was 8.7. The “Mean Revertant Colony Counts TA98 S9-” value ([8]; 64 ug/Well) was 6.0, the “Mean Revertant Colony Counts TA98 SP9+” value ([8]; 160 ug/Well) was 6.3 and the “Mean Revertant Colony Counts TA98 S9-” value ([8]; 160 ug/Well) was 3.7. The “Mean Revertant Colony Counts TA98 SP9+” value ([8]; 400 ug/Well) was 7.3, the “Mean Revertant Colony Counts TA98 S9-” value ([8]; 400 ug/Well) was 2.0 and the “Mean Revertant Colony Counts TA98 SP9+” value ([8]; 1000 ug/Well) was 4.0. The “Mean Revertant Colony Counts TA98 S9-” value ([8]; 1000 ug/Well) was 3.7, the “fold increase in the mean number of revertant colonies, TA98” value [8, 10] was less than 2 fold and the “Remaining Percentage of 60 min (%), Mouse, Tested Sample” value ([9]; 0.5mg/ml microsomes and 1mM NADPH, 60 min) was 88.1%. The “Remaining Percentage of 60 min (%), Mouse, Negative Control” value ([9]; 0.5mg/ml microsomes without NADPH, 60 min) was 109.7%, the “stability in MLM” value ([9]; 60 minutes) was “stable” and the “Remaining Percentage of 60 min (%), Mouse, Heat-inactivated Control” value ([9]; heat inactivated microsomes without NADPH, 60 min) was 91.4%.
